# In paper PMC6890677, “Surface Grafted MSI-78A Antimicrobial Peptide has High Potential for Gastric Infection Management” (Scientific Reports, 2019):
# Where no end group is shown, it is not given here.
# Key:
# H. pylori J99 [1] = details: viability of the inoculum reduced by ≥99.9%, CFU on BA after 5 days, 2 replicates in 3 independent experiments
# Experimental: (§1) H. pylori human strains J99 and 26695 (provided by Department of Medical Biochemistry and Biophysics, Umeå University, Sweden), NCTC 11637 (ATCC 43504) and mouse-adapted SS1 strain (provided by Unité de Pathogenèse de Helicobacter, Institut Pasteur, France) were grown following the standard procedure. Briefly, H. pylori was cultured in Blood Agar (BA; Oxoid) supplemented with 10% of defibrinated horse blood (Probiologica) and with an antibiotic cocktail (polymyxin B, vancomycin, amphotericin B, trimethoprim; all from Sigma-Aldrich) under microaerophilic conditions (<5% O2; GenBox System, BioMérieux) at 37 °C for 48 h. Afterwards, some colonies were streaked onto fresh BA medium and kept in culture in the same conditions for another 48 h. Subsequently, bacterial inoculum was adjusted to 0.03 optical density at 600 nm (OD600), which corresponds to approximately 1 × 10^7 colony forming units (CFUs)/mL[48]. Initial inoculum was confirmed by inoculation of 10 μL drops of the bacterial suspension onto BA and CFUs were counted after 5 days of incubation in the same above-mentioned settings.
# (§2) The MBC was defined as the lowest AMP concentration that was able to diminish the viability of the initial bacterial inoculum by ≥99.9%. MBC determination followed the CLSI guidelines[49] but briefly, a 50 µL sample was taken from the first three lowest concentrations where no bacterial growth was observed (concentration corresponding to the MIC), serially diluted in PBS until 10^−6 and then spotted on BA. After 5 days of incubation at 37 °C in microaerophilic environment, the CFUs/mL were calculated. Two replicates of each AMP concentration were performed in three independent experiments.
# H. pylori NTCC 11637 [2] = details: viability of the inoculum reduced by ≥99.9%, CFU on BA after 5 days, 2 replicates in 3 independent experiments
# Experimental: as §1, §2
# H. pylori 26695 [3] = details: viability of the inoculum reduced by ≥99.9%, CFU on BA after 5 days, 2 replicates in 3 independent experiments
# Experimental: as §1, §2
# H. pylori J99 [4] = details: MHB + 10% FBS, 37 °C, microaerophilic, 72 h, 2 replicates in 3 independent experiments
# Experimental: as §1
# (§3) The MICs of the AMPs (Table 1) against H. pylori strains were determined using the microbroth dilution method in Mueller Hinton Broth (MHB) supplemented with 10% of inactivated Fetal Bovine Serum (FBS; Gibco) and in accordance with the Clinical Laboratory Standards Institute (CLSI) guidelines. Briefly, AMPs were diluted in 0.01% of acetic acid with 0.2% Bovine Serum Albumin (BSA; Sigma) to allow AMP protonation and avoid its aggregation, respectively, following an already established protocol. The selected AMPs concentrations ranged from 2 µg/mL up to 512 µg/mL. Incubation was performed at 37 °C in microaerophilic conditions for 72 h. The MIC was defined as the first AMP concentration that prevented visible (naked eye) bacterial growth. Two replicates of each AMP concentration were performed in three independent experiments.
# H. pylori SS1 [5] = details: H. pylori SS1 (mouse-adapted); MHB + 10% FBS, 37 °C, microaerophilic, 72 h; 2 replicates in 3 independent experiments
# Experimental: as §1, §3
# H. pylori NTCC 11637 [6] = details: MHB + 10% FBS, 37 °C, microaerophilic, 72 h, 2 replicates in 3 independent experiments
# Experimental: as §1, §3
# H. pylori 26695 [7] = details: MHB + 10% FBS, 37 °C, microaerophilic, 72 h, 2 replicates in 3 independent experiments
# Experimental: as §1, §3
# H. pylori SS1 [8] = type: cell-based, Helicobacter pylori; details: H. pylori SS1 (mouse-adapted); viability of the inoculum reduced by ≥99.9%; CFU on BA after 5 days; 2 replicates in 3 independent experiments
# Experimental: as §1, §2
# S. epidermidis = assay: MIC of AMP in solution, adhesion control strain
Sequence,MBC (H. pylori J99 [1]),MBC (H. pylori NTCC 11637 [2]),MBC (H. pylori 26695 [3]),MIC (H. pylori J99 [4]),MIC (H. pylori SS1 [5]),MIC (H. pylori NTCC 11637 [6]),MIC (H. pylori 26695 [7]),MBC (H. pylori SS1 [8]),MIC (S. epidermidis)
GLLRASSVWGRKYYVDLAGCAKA [Odorranain-HP],>512 µg/mL,>512 µg/mL,>512 µg/mL,>512 µg/mL,>512 µg/mL,>512 µg/mL,>512 µg/mL,>512 µg/mL,–
GIGKFLKKAKKFAKAFVKILKK [MSI-78A],128 µg/mL,256 µg/mL,32 µg/mL,64 µg/mL,128 µg/mL,128 µg/mL,16 µg/mL,256 µg/mL,2 µg/mL
GIGKFLKKAKKFGKAFVKILKK [MSI-78],>512 µg/mL,>512 µg/mL,128 µg/mL,256 µg/mL,128 µg/mL,256 µg/mL,64 µg/mL,>512 µg/mL,–
